Results on 17 molecules are retold here after patent US8628767B2, “Purine nucleoside phosphorylase as enzymatic activator of nucleoside prodrugs” (priority 2008, dated 2014).

Substitutions are numbered along the chain they refer to. Names may count otherwise. Like-named read-outs stand apart in the source and are kept apart here. Where only a bound is given, the exact number is not on record here.

Data set [1] concerns T. vaginalis PNP. In words: Substrate cleavage by wild-type Tv-PNP (HPLC). Format: biochemical, Trichomonas vaginalis. The note with it: for rate of enzymatic cleavage by T. vaginalis PNP: 100 micromolar substrate, HPLC separation of base from nucleoside; for activity of Tv-PNP as compared to wild-type E. coli PNP: summary of Table 1. As to the method:
(§1) The method quantitatively measures the cleavage of substrates in vitro. The purine analog nucleosides (0.1 mM in 500 μl of 100 mM HEPES, pH 7.4, 50 mM potassium phosphate) are combined with 100 μg/ml Tv-PNP or wild-type E. coli PNP. The reaction mixtures are incubated at 25° C. for 1 hour, and the reactions stopped by boiling each sample for 2 minutes. Protein concentration and time of assay are varied depending on activity of enzyme for a particular substrate. Each sample is analyzed by reverse phase HPLC to measure conversion from substrate to product. The nucleoside and purine analogs are eluted from a Spherisorb ODSI (5 μm) column (Keystone Scientific, Inc., State College, Pa.) with a solvent containing 50 mM ammonium dihydrogen phosphate (95%) and acetonitrile (5%). Products are detected by absorbance at 254 nm, and are identified by comparing their retention times and absorption spectra with authentic control samples.
Numerous compounds are tested for efficiency as substrate for Tv-PNP in parallel comparison with E. coli PNP. The compounds include various analogs of adenosine, of inosine, of MeP-dR, and of fluoro- or chloro-substituted adenosine. The enzymes are incubated with 100 micromolar of each compound listed in the table and the rate of enzymatic cleavage is determined by HPLC separation of the base from the nucleoside. […] It is appreciated that the greater biological activity of the Tv-PNP enzyme allows for greater activity in impairing abnormal cell growth when the Tv-PNP is used for treatment of pathological conditions using F-araA as a prodrug substrate.

Data set [2] in a line: Tolerated dose of MeP-dR in mice. Format: in vivo. The source says:
The formula of Freidenreich et al., Cancer Chemother. Rep., 50:219-244, (1966) is optionally used to determine the maximum tolerated dose of substrate for a human subject. […] This amount or slightly less is expected to maximize tumor cell killing in humans without killing the subject thereby generating a favorable efficacy to safety profile. This standard of effectiveness is accepted in the field of cancer therapy. More preferably, a drug levels administered range from about 10% to 1% of the maximum tolerated dosage (for example, 7.5 mg/m^2-0.75 mg/m^2). It is understood that modes of administration that permit the substrate to remain localized at or near the site of the tumor will be effective at lower doses than systemically administered substrates.

In another data set the target is E. coli PNP (Escherichia coli, UniProt P0ABP8). Put plainly: Substrate cleavage by wild-type E. coli PNP (HPLC). Format: biochemical. The note with it: 100 micromolar substrate, HPLC separation of base from nucleoside. As to the method:
as §1
Numerous compounds are tested for efficiency as substrate for Tv-PNP in parallel comparison with E. coli PNP. […] The enzymes are incubated with 100 micromolar of each compound listed in the table and the rate of enzymatic cleavage is determined by HPLC separation of the base from the nucleoside.

Data set [3] relates to T. vaginalis PNP. Particulars: Wang et al.; cited from earlier work.
In data set [4] the test system is tumor expressing wild-type E. coli PNP enzyme. The note with it: cited from earlier work.
The nature of data set [5]: Cleavage of F-araA by PNPs of various origins (HPLC). The note with it: for F-araA rate of cleavage: 100 μM F-araA, enzymes of various purities. The data set is classed as biochemical.
Data set [6] in a line: Cleavage of MeP-dR by PNPs of various origins (HPLC). The data set is classed as biochemical. Particulars: 100 μM MeP-dR, enzymes of various purities.
[7] abbreviates: equimolar quantities of substrate.

Chain of E. coli PNP (P0ABP8 whole entry): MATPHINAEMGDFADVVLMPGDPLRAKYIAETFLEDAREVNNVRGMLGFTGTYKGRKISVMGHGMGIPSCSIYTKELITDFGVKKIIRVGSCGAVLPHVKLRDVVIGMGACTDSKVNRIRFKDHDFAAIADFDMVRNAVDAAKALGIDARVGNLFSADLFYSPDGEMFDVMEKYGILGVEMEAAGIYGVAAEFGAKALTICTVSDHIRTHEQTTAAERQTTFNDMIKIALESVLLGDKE

Turning to `Cc1ncnc2c1ncn2[C@H]1C[C@H](O)[C@@H](CO)O1` [9-(2-deoxy-β-D-ribofuranosyl]-6-methylpurine], in the data set with T. vaginalis PNP [1], the “rate of enzymatic cleavage by T. vaginalis PNP” value (shortened to “rate … by T. vaginalis PNP”) is on record as 484,000 nanomoles per milligrams per hour. For the same molecule, the toxicity entry in data set [2] (mice, systemic, 25 mg per kg per day for 9 days (9 doses total)) is given as “some toxicity but no lethality”. Also, the “human dosage (maximum tolerated dose) by formula of Freidenreich et al.” value in data set [2] (mouse, in vivo, 25 mg/kg) is 75 mg/m^2. Moreover, the “rate of enzymatic cleavage by E. coli PNP” value (shortened to “rate … by E. coli PNP”) on E. coli PNP is on record as 528,000 nanomoles per milligrams per hour.

Turning to `Nc1nc(F)nc2c1ncn2[C@@H]1O[C@H](CO)[C@@H](O)[C@@H]1O` [9-(β-D-arabinofuranosyl)-2-fluoroadenine, reference compound], the “activity of Tv-PNP towards substrate, conventional understanding” value in the data set with T. vaginalis PNP [3] is on record as “does not have appreciable activity”. In the data set on T. vaginalis PNP [1], the “rate … by T. vaginalis PNP” value was 32,000 nanomoles per milligrams per hour and the “activity of Tv-PNP as compared to wild-type E. coli PNP” value is reported as “more activity”. For the same molecule, the “cleavage rate by Tv-PNP relative to E. coli PNP” value in the data set with T. vaginalis PNP [1] (Tv-PNP rate / E. coli PNP rate) was “approximately 23 times”. The “catalytic efficiency of Tv-PNP relative to E. coli PNP” value with T. vaginalis PNP [1] (Vmax/Km ratio) was found to be 25 fold. Moreover, the tumor response result in data set [4] is recorded as “complete responses”. On E. coli PNP, the “rate … by E. coli PNP” value was 1,250 nanomoles per milligrams per hour.

Consider `Nc1nc(F)nc2c1ncn2[C@@H]1O[C@@H](CO)[C@@H](O)[C@H]1O` [9-α-L-lyxofuranosyl-2-F-adenine, 9-(α-L-lyxofuranosyl)-2-fluoroadenine], for which, in the data set on T. vaginalis PNP [1], the “rate … by T. vaginalis PNP” value is given as 28,200 nanomoles per milligrams per hour and the “activity of Tv-PNP as compared to wild-type E. coli PNP” value is on record as “more activity”. The “rate … by E. coli PNP” value at E. coli PNP is on record as 7,800 nanomoles per milligrams per hour.

As to `Cc1ncnc2c1ncn2[C@@H]1O[C@@H](CO)[C@@H](O)[C@H]1O` [9-α-L-lyxofuranosyl-6-methylpurine], the “rate … by T. vaginalis PNP” value with T. vaginalis PNP [1] is recorded as 10,000 nanomoles per milligrams per hour. For the same molecule, the “rate … by E. coli PNP” value on E. coli PNP is given as 320 nanomoles per milligrams per hour.

On to `Nc1ncnc2c1ncn2[C@@H]1O[C@@H](CO)[C@@H](O)[C@H]1O` [9-α-L-lyxofuranosyl-adenine], for which the “rate … by T. vaginalis PNP” value with T. vaginalis PNP [1] is 22,000 nanomoles per milligrams per hour. For the same molecule, the “rate … by E. coli PNP” value at E. coli PNP was 3,700 nanomoles per milligrams per hour.

Consider `Nc1ncnc2c1ncn2[C@@H]1O[C@H](CO)[C@@H](O)[C@@H]1O` [9-β-D-arabinofuranosyl-adenine], for which the “rate … by T. vaginalis PNP” value with T. vaginalis PNP [1] is recorded as 38,000 nanomoles per milligrams per hour. For the same molecule, the “rate … by E. coli PNP” value on E. coli PNP is 610 nanomoles per milligrams per hour.

With `Nc1nc2c(ncn2[C@@H]2O[C@H](CO)[C@@H](O)[C@@H]2O)c(=O)[nH]1` [9-β-D-arabinofuranosyl-guanine], the “rate … by T. vaginalis PNP” value in the data set on T. vaginalis PNP [1] is on record as 16 nanomoles per milligrams per hour. In addition, the “rate … by E. coli PNP” value on E. coli PNP is 310 nanomoles per milligrams per hour.

`O=c1[nH]cnc2c1ncn2[C@@H]1O[C@H](CO)[C@@H](O)[C@@H]1O` [9-β-D-arabinofuranosyl-hypoxanthine]: the “rate … by T. vaginalis PNP” value in the data set on T. vaginalis PNP [1] is 48 nanomoles per milligrams per hour. Moreover, on E. coli PNP, the “rate … by E. coli PNP” value was 61 nanomoles per milligrams per hour.

For `Cc1ncnc2c1ncn2[C@@H]1O[C@H](CO)[C@@H](O)[C@H]1O` [9-β-D-ribofuranosyl-6-methylpurine], in the data set with T. vaginalis PNP [1], the “rate … by T. vaginalis PNP” value was 155,000 nanomoles per milligrams per hour. Also, at E. coli PNP, the “rate … by E. coli PNP” value was 96,000 nanomoles per milligrams per hour.

Turning to `Nc1ncnc2c1ncn2[C@@H]1O[C@H](CO)[C@H](O)[C@H]1O` [9-β-D-xylofuranosyl-adenine], the “rate … by T. vaginalis PNP” value in the data set with T. vaginalis PNP [1] is on record as 2 nanomoles per milligrams per hour. The “rate … by E. coli PNP” value on E. coli PNP is given as <2 nanomoles per milligrams per hour.

For `Nc1nc2c(ncn2[C@@H]2O[C@H](CO)[C@@H](O)[C@H]2O)c(=O)[nH]1` [Guanosine, reference compound], in the data set with T. vaginalis PNP [1], the “rate … by T. vaginalis PNP” value is on record as 14,000 nanomoles per milligrams per hour. Moreover, on E. coli PNP, the “rate … by E. coli PNP” value is recorded as 156,000 nanomoles per milligrams per hour.

For the molecule `OC[C@H]1O[C@@H](n2cnc3c(O)ncnc32)[C@H](O)[C@@H]1O` [Inosine, reference compound], the “rate … by T. vaginalis PNP” value in the data set with T. vaginalis PNP [1] is 154,000 nanomoles per milligrams per hour. Moreover, at E. coli PNP, the “rate … by E. coli PNP” value is recorded as 342,000 nanomoles per milligrams per hour.

B1: E. coli PNP: wild-type E. coli purine nucleoside phosphorylase (protein, UniProt P0ABP8 2-239, looked up)
Purine nucleoside …: ATPHINAEMGDFADVVLMPGDPLRAKYIAETFLEDAREVNNVRGMLGFTGTYKGRKISVMGHGMGIPSCSIYTKELITDFGVKKIIRVGSCGAVLPHVKLRDVVIGMGACTDSKVNRIRFKDHDFAAIADFDMVRNAVDAAKALGIDARVGNLFSADLFYSPDGEMFDVMEKYGILGVEMEAAGIYGVAAEFGAKALTICTVSDHIRTHEQTTAAERQTTFNDMIKIALESVLLGDKE
On to B1, for which, in data set [5], the MeP-dR/F-araA cleavage ratio is recorded as 422 and the “F-araA rate of cleavage” value is 1,250 nmoles/mg/hr. Further, the “MeP-dR rate of cleavage” value in data set [6] was 528,000 nmoles/mg/hr.

B2: E. Coli PNP mutant M65V (protein, UniProt P0ABP8 2-239, looked up, variant M65V)
Purine nucleoside …: B1 Purine nucleoside … with M64V
On to B2, for which the MeP-dR/F-araA cleavage ratio in data set [5] turned out to be 469±52; in data set [5] (setting [7]), 469; in data set [5] (purified enzyme), 593. Further, the “F-araA rate of cleavage” value in data set [5] is 3.9 nmol/mg/h. The “MeP-dR rate of cleavage” value in data set [6] was determined as 1823 nmol/mg/h.

B3: T. vaginalis PNP: wild-type Trichomonas vaginalis purine nucleoside phosphorylase, amino acid sequence SEQ ID NO: 5 (protein, listed as Trichomonas vaginalis)
chain: MATPHNSAQVGDFAETVLMCGDPLRAKLIAETYLENPKLVNNVRGIQGYTGTYKGKPISVMGHGMGLPSICIYAEELYSTYKVKTIIRVGTCGAIDMDIHTRDIVIFTSAGTNSKINRIRFMDHDYPATASFDVVCALVDAAKELNIPAKVGKGFSTDLFYNPQTELAQLMNKFHFLAVEMESAGLFPIADLYGARAGCICTVSDHILHHEETTAEERQNSFQNMMKIALEAAIKL
For B3, in data set [5], the “F-araA rate of cleavage” value is 30,000 nmoles/mg/hr. Moreover, in data set [5] (setting [7]), the MeP-dR/F-araA cleavage ratio came to 18. For the same molecule, the “MeP-dR rate of cleavage” value in data set [6] is listed as 536,000 nmoles/mg/hr.

B4: human PNP: human purine nucleoside phosphorylase (protein, UniProt P00491 1-289, looked up)
Purine nucleoside …: MENGYTYEDYKNTAEWLLSHTKHRPQVAIICGSGLGGLTDKLTQAQIFDYGEIPNFPRSTVPGHAGRLVFGFLNGRACVMMQGRFHMYEGYPLWKVTFPVRVFHLLGVDTLVVTNAAGGLNPKFEVGDIMLIRDHINLPGFSGQNPLRGPNDERFGDRFPAMSDAYDRTMRQRALSTWKQMGEQRELQEGTYVMVAGPSFETVAECRVLQKLGADAVGMSTVPEVIVARHCGLRVFGFSLITNKVIMDYESLEKANHEEVLAAGKQAAQKLEQFVSILMASIPLPDKAS
Consider B4, for which the “F-araA rate of cleavage” value in data set [5] is under 1 nmol/mg/h. Besides, in data set [5] (setting [7]), the MeP-dR/F-araA cleavage ratio is on record as over 35. The “MeP-dR rate of cleavage” value in data set [6] came to 35 nmol/mg/h.

B5: Salmonella typhimurium PNP: purine nucleoside phosphorylase of Salmonella typhimurium (protein, UniProt Q8ZJV7 1-239, looked up)
Purine nucleoside …: MATPHINAEMGDFADVVLMPGDPLRAKHIAETFLENVREVNNVRGMLGFTGTYKGRKISVMGHGMGIPSCSIYTKELITDFGVKKIIRVGSCGAVRMDVKLRDVVIGMGACTDSKVNRIRFKDHDFAAIADFDMVRNAVDAAKALGVDARVGNLFSADLFYSPDGEMFDVMEKYGVLGVEMEAAGIYGVAAEFGAKALTICTVSDHIRTHEQTTAAERQTTFNDMIKIALESVLLGDKE
For B5, the “F-araA rate of cleavage” value in data set [5] amounted to 20 nmol/mg/h. In addition, in data set [5] (setting [7]), the MeP-dR/F-araA cleavage ratio was 458. Moreover, the “MeP-dR rate of cleavage” value in data set [6] was 9,150 nmoles/mg/hr.
